What was measured:
[1] = Test on Tang (high intensity sweetener HIS masking), evaluation by expert tasters; conditions: versus base
Protocol: In an orange flavoured Tang powdered soft drink (market product) sweetened with sucrose plus high intensity sweetener (aspartame and acesulfame-K) and containing citric acid, C18:2-gaba and C18:2-pro were tested.
All samples were evaluated by expert tasters. Tasters were asked to describe the samples focusing on authentic taste, masking off notes of high intensity sweetener, mouthfeel & body, enhancement, richness, juiciness, long lastingness, salivation, sweetness
Base is Orange flavoured Tang
Base: sweet, orange, licorice, and lingering high intensity sweetener off-notes, bitter, thin

[2] = Test on liquid margarine (KCL masking), evaluation by expert tasters; conditions: 2 ppm in Blueband liquid margarine, 0.8% KCL, proprietary masking flavour 0.01%
Protocol: In Blueband liquid margarine (market product) with added KCL 0.8% and a proprietary masking flavour @ 0.01% 18:2 gaba was added at 2 ppm.
Samples were evaluated by expert tasters. Tasters were asked to describe the samples focusing on authentic taste, masking of KCL off notes, mouthfeel, saltiness, fullness, salivation, long lastingness and fattiness.
Base is Blueband, 0.8% KCL, proprietary masking @ 0.01%
Base: metallic, buttery, bitter and soapy

[3] = Test on soy milk (soy protein masking), evaluation by expert tasters; conditions: 2 ppm in soy milk (1.8% fat), 5% sucrose, milk flavour 0.1%
Protocol: In a soy milk (1.8% fat) sweetened with 5% sucrose by weight, flavoured with a proprietary milk flavour at a dosage of 0.1%, C18:2-gaba was added at 2 ppm
Samples were evaluated by expert tasters. Tasters were asked to describe the samples focusing on authentic taste, masking of soy protein off notes, mouthfeel, fullness, salivation, sweetness, richness, long lastingness and fattiness.
Soy milk, 5% sucrose, milk flavor @ 0.1%: sweet, dry, green, soy bean taste

Row | Compound | masking off notes of high intensity sweetener ([1]; 1 ppm in orange flavoured Tang (sucrose, aspartame, acesulfame-K, citric acid)) | taste description (enhancement, juiciness, authentic taste) ([1]; 1 ppm in orange flavoured Tang) | authentic taste [2] | masking of KCL off notes [2] | saltiness and mouthfeel [2] | masking off notes of high intensity sweetener ([1]; 0.5 ppm in orange flavoured Tang (sucrose, aspartame, acesulfame-K, citric acid)) | taste description (enhancement, juiciness, mouthfeel) ([1]; 0.5 ppm in orange flavoured Tang) | masking of soy protein off notes [3] | taste description (richness, mouthfeel, fattiness) [3]
1 | CCCCC/C=C\C/C=C\CCCCCCCC(=O)N1CCC[C@H]1C(=O)O [C18:2-Pro, N-linoleoyl-Pro] | the off-notes of the high intensity sweetener were suppressed | the fresh, sweet juicy orange notes are enhanced, characteristic of authentic fresh orange fruit | – | – | – | – | – | – | –
2 | CCCCC/C=C\C/C=C\CCCCCCCC(=O)NCCCC(=O)O [C18:2-gaba] | – | – | more authentic butter | less metallic and bitter notes | more saltiness, more mouthfeel | the off-notes of the high intensity sweetener were suppressed | the sweet juicy orange notes and mouthfeel are enhanced | good reduction of the undesirable soy bean off-taste | clean, rich, creamy and milky

Source: patent publication US10856563B2, “N-acyl-amino acid derivatives for improvement of the flavor profile of edible compositions” (Givaudan S.A., priority 2012, dated 2020)
